Assay: xn = mol fraction of the nth substance listed
Conditions: 98.93 kPa, Liquid

CCCO [propan-1-ol] + O
mass density [kg/m3]
Conditions	283.15 K	288.15 K	293.15 K	298.15 K	303.15 K	308.15 K
x1 = 0.002	998.53	997.69	996.58	995.4	994.2	992.72
x1 = 0.005	996.91	996.06	994.95	993.76	992.54	991.05
x1 = 0.009	994.87	994	992.87	991.66	990.43	988.92
x1 = 0.01	994.38	993.49	992.36	991.14	989.92	988.4
x1 = 0.02	989.99	988.99	987.82	986.54	985.27	983.68
x1 = 0.03	986.29	985.17	983.91	982.56	981.2	979.57
x1 = 0.05	979.96	978.27	977.1	975.49	973.96	972.3
x1 = 0.065	975.01	972.88	971.86	969.94	968.38	966.41
x1 = 0.08	969.18	966.99	965.87	963.72	961.92	959.82
x1 = 0.1	960.42	958.48	957.26	954.91	952.93	950.64
x1 = 0.13	947.97	946	944.52	941.96	939.8	937.47
x1 = 0.15	940.47	938.48	936.78	934.12	931.81	929.47
x1 = 0.17	933.5	931.45	929.49	926.68	924.32	922.05
x1 = 0.1856	928.41	926.35	924.19	921.23	918.84	916.61
x1 = 0.2	923.98	921.89	919.56	916.46	914.04	911.83

OCCCO [propan-1,3-diol] + O
mass density [kg/m3]
Conditions	283.15 K	288.15 K	293.15 K	298.15 K	303.15 K	308.15 K
x1 = 0.002	1000.12	999.49	998.61	997.63	996.05	994.51
x1 = 0.005	1000.99	1000.34	999.44	998.44	996.84	995.27
x1 = 0.01	1002.44	1001.75	1000.81	999.76	998.14	996.53
x1 = 0.019	1005.28	1004.53	1003.5	1002.37	1000.71	999
x1 = 0.03	1008.07	1007.24	1006.13	1004.91	1003.2	1001.41
x1 = 0.04	1010.8	1009.9	1008.71	1007.39	1005.63	1003.75
x1 = 0.05	1013.46	1012.49	1011.23	1009.82	1008	1006.03
x1 = 0.065	1017.32	1016.24	1014.85	1013.31	1011.4	1009.3
x1 = 0.08	1021.01	1019.75	1018.24	1016.57	1014.57	1012.35
x1 = 0.1	1025.57	1024.07	1022.38	1020.58	1018.45	1016.06
x1 = 0.125	1030.69	1028.92	1027.01	1025.02	1022.73	1020.19
x1 = 0.1526	1035.61	1033.62	1031.48	1029.18	1026.8	1024.09
x1 = 0.17	1038.35	1036.24	1033.94	1031.44	1029.04	1026.23
x1 = 0.18	1039.8	1037.62	1035.24	1032.61	1030.2	1027.36
x1 = 0.2	1042.35	1040.04	1037.56	1034.66	1032.25	1029.35

Source: the NIST ThermoML archive (doi:10.1016/j.jct.2008.07.005)
